Biological target: Protein cereblon/Tyrosine-protein kinase BTK (Homo sapiens, UniProt Q06187+Q96SW2)
Test: Protac activity at E3 ubiquitin ligase/BTK in human Ramos cells assessed as induction of BTK degradation measured after 16 hrs by ELISA
Type: cell-based

Chain of Protein cereblon/Tyrosine-protein kinase BTK (Q06187 whole entry): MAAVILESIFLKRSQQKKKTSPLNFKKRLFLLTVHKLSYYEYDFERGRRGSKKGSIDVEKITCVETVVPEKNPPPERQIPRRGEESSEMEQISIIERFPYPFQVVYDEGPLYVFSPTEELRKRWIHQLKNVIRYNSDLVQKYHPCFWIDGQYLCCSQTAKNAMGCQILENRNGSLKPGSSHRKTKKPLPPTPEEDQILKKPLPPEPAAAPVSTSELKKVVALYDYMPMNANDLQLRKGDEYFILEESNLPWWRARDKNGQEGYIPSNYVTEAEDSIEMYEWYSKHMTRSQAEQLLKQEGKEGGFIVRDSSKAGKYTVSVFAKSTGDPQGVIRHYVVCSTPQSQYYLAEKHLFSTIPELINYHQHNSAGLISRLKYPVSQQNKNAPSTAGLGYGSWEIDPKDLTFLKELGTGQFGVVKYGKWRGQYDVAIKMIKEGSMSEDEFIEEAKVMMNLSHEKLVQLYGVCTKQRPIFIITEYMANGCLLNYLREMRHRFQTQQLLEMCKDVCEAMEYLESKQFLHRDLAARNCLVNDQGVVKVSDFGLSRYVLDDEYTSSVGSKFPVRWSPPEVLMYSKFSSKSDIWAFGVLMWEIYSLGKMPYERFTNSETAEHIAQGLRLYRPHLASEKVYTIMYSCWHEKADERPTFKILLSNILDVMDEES
Chain of Protein cereblon/Tyrosine-protein kinase BTK (Q96SW2 whole entry): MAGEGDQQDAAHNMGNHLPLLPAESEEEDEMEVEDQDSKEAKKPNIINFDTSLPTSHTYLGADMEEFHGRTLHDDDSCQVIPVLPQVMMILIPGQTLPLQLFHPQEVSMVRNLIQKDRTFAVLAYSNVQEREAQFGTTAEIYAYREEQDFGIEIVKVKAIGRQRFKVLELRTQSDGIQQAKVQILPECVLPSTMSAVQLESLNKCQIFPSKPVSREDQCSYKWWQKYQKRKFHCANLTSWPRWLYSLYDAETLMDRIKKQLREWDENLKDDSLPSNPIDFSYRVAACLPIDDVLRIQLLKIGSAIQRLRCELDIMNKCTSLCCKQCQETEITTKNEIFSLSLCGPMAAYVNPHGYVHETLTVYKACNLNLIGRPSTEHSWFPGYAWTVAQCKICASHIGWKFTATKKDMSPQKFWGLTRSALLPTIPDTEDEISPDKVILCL

| SMILES | DC50 [nM] |
| --- | --- |
| NC(=O)c1c(-c2ccc(Oc3ccccc3)cc2)nn2c1NCC[C@H]2C1CCN(C(=O)CCCc2ccc(NC(=O)CNc3ccc4c(c3)C(=O)N(C3CCC(=O)NC3=O)C4=O)cc2)CC1 (some centres not stated) | 28 |
| NC(=O)c1c(-c2ccc(Oc3ccccc3)cc2)nn2c1NCC[C@H]2C1CCN(C(=O)CCN2CCN(C(=O)CNc3ccc4c(c3)C(=O)N(C3CCC(=O)NC3=O)C4=O)CC2)CC1 (some centres not stated) | 2.9 |
| NC(=O)c1c(-c2ccc(Oc3ccccc3)cc2)nn2c1NCC[C@H]2C1CCN(C(=O)CCC2CCC(N3CCN(c4ccc5c(c4)C(=O)N(C4CCC(=O)NC4=O)C5=O)CC3)CC2)CC1 (some centres not stated) | 17 |
| CN(CCC(=O)N1CCC([C@@H]2CCNc3c(C(N)=O)c(-c4ccc(Oc5ccccc5)cc4)nn32)CC1)CC1CCN(c2ccc3c(c2)C(=O)N(C2CCC(=O)NC2=O)C3=O)CC1 (some centres not stated) | 35 |
| NC(=O)c1c(-c2ccc(Oc3ccccc3)cc2)nn2c1NCC[C@H]2C1CCN(C(=O)c2cn(CCOCCOCC(=O)Nc3ccc4c(c3)C(=O)N(C3CCC(=O)NC3=O)C4=O)nn2)CC1 (some centres not stated) | 34 |
| NC(=O)c1c(-c2ccc(Oc3ccccc3)cc2)nn2c1NCC[C@H]2C1CCN(C(=O)c2cn(CCOCCOCCOCCOCCNc3cccc4c3C(=O)N(C3CCC(=O)NC3=O)C4=O)nn2)CC1 (some centres not stated) | 68 |
| NC(=O)c1c(-c2ccc(Oc3ccccc3)cc2)nn2c1NCC[C@H]2C1CCN(C(=O)c2cn(CCOCCOCCOCCOCCOCCOCCNc3cccc4c3C(=O)N(C3CCC(=O)NC3=O)C4=O)nn2)CC1 (some centres not stated) | 107 |

The remaining compounds from weak to strong by DC50, led by results:

| DC50 [nM] | SMILES |
| --- | --- |
| 78 | NC(=O)c1c(-c2ccc(Oc3ccccc3)cc2)nn2c1NCC[C@H]2C1CCN(C(=O)c2cn(CCOCCOCCOCCOCCOCCNc3cccc4c3C(=O)N(C3CCC(=O)NC3=O)C4=O)nn2)CC1 (some centres not stated) |
| 78 | NC(=O)c1c(-c2ccc(Oc3ccccc3)cc2)nn2c1NCC[C@H]2C1CCN(C(=O)c2cn(CCOCCOCCOCCOCCOCCNc3ccc4c(c3)C(=O)N(C3CCC(=O)NC3=O)C4=O)nn2)CC1 (some centres not stated) |
| 74 | NC(=O)c1c(-c2ccc(Oc3ccccc3)cc2)nn2c1NCC[C@H]2C1CCN(C(=O)CCc2ccc(N3CCN(c4ccc5c(c4)C(=O)N(C4CCC(=O)NC4=O)C5=O)CC3)cc2)CC1 (some centres not stated) |
| 35 | NC(=O)c1c(-c2ccc(Oc3ccccc3)cc2)nn2c1NCC[C@H]2C1CCN(C(=O)CCCN2CCN(C(=O)CNc3ccc4c(c3)C(=O)N(C3CCC(=O)NC3=O)C4=O)CC2)CC1 (some centres not stated) |
| 7.2 | CN(CC1CCN(C(=O)c2ccc(N3CCC(=O)NC3=O)cc2)CC1)C1CC(C(=O)N2CCC([C@@H]3CCNc4c(C(N)=O)c(-c5ccc(Oc6ccccc6)cc5)nn43)CC2)C1 (some centres not stated) |
